Values after ≈ are worked out from the molar mass of the structure shown. Active and inactive are the calls of the source. The rule behind the calls is not given here.
Columns and labels:
[1] = (§1) Oral bioavailability in rat at 5 mg/kg; assay type: ADME, organism-based; conditions: in vivo
[2] = Aqueous solubility of compound at pH 6 after 20 hrs by HPLC analysis; assay type: physicochemical
[3] = biological target: T1, Prostaglandin E2 receptor EP4 subtype (Homo sapiens, UniProt P35408); test: Antagonist activity at EP4 receptor in LPS-stimulated human whole blood assessed as inhibition of PGE2-induced TNF-alpha release pretreated for 30 mins followed by addition of PGE2 measured after 20 to 24 hrs by immunoassay; assay type: tissue-based
[4] = Clearance in rat at 1 mg/kg, iv; assay type: ADME, organism-based; conditions: in vivo
[5] = (§2) AUC in rat at 5 mg/kg, po; assay type: ADME, organism-based; conditions: in vivo
Rattus norvegicus [6] = test: as §1; assay type: ADME, organism-based; conditions: in vivo
[7] = biological target: T1, Prostaglandin E2 receptor EP4 subtype; test: Antagonist activity at human EP4 receptor expressed in HEK293 cells assessed as inhibition of PGE2-stimulated cAMP production after 1 hr by HTRF assay; assay type: functional, cell-based
Rattus norvegicus [8] = test: as §2; assay type: ADME, organism-based; conditions: in vivo
[9] = biological target: Histamine H1 receptor (Homo sapiens) (UniProt P35367); test: Inhibition of human histamine H1 receptor at 10 uM
[10] = biological target: Adrenergic receptor alpha-1 (Rattus norvegicus) (UniProt P15823+P23944+P43140); test: Inhibition of rat alpha-1 adrenergic receptor at 10 uM
[11] = biological target: Adenosine receptor A3 (Homo sapiens) (UniProt P0DMS8); test: Inhibition of human adenosine A3 receptor at 10 uM
Cytochrome P450 2C8 = Cytochrome P450 2C8 (Homo sapiens, UniProt P10632); test: Inhibition of CYP2C8 (unknown origin); assay type: ADME
Cytochrome P450 1A2 = Cytochrome P450 1A2 (Homo sapiens, UniProt P05177); test: Inhibition of CYP1A2 (unknown origin); assay type: ADME
[12] = biological target: Muscarinic acetylcholine receptor M2 (Homo sapiens) (UniProt P08172); test: Inhibition of human muscarinic M2 receptor at 10 uM
[13] = biological target: D(1A) dopamine receptor (Homo sapiens) (UniProt P21728); test: Inhibition of human dopamine D1 receptor at 10 uM
[14] = biological target: Adrenergic receptor alpha-2 (Rattus norvegicus) (UniProt P22086+P19328+P22909); test: Inhibition of rat alpha-2 adrenergic receptor at 10 uM
Cytochrome P450 2C9 = Cytochrome P450 2C9 (Homo sapiens, UniProt P11712); test: Inhibition of CYP2C9 (unknown origin); assay type: ADME
[15] = Half life in rat at 5 mg/kg, po; assay type: ADME, organism-based; conditions: in vivo
[16] = Clearance in dog at 1 mg/kg, iv; assay type: ADME, organism-based, Canis lupus familiaris; conditions: in vivo
[17] = biological target: Prostaglandin E2 receptor EP3 subtype (Homo sapiens, UniProt P43115); test: Binding affinity to human EP3 receptor
Cytochrome P450 2B6 = Cytochrome P450 2B6 (Homo sapiens, UniProt P20813); test: Inhibition of CYP2B6 (unknown origin); assay type: ADME
[18] = biological target: Beta-1 adrenergic receptor (Homo sapiens) (UniProt P08588); test: Inhibition of human beta-1 adrenergic receptor at 10 uM
[19] = biological target: Mu-type opioid receptor (Homo sapiens) (UniProt P35372); test: Inhibition of human mu opoid receptor at 10 uM
[20] = biological target: Sodium-dependent noradrenaline transporter (Homo sapiens) (UniProt P23975); test: Inhibition of human Noradrenaline transporter at 10 uM
[21] = biological target: D(2) dopamine receptor (Homo sapiens) (UniProt P14416); test: Inhibition of human dopamine D2s receptor at 10 uM
Rattus norvegicus [22] = test: Antiinflammatory activity in adjuvant-induced arthritis rat model assessed as inhibition of paw swelling at 10 and 30 mg/kg administered 15 days post adjuvant challenge; assay type: functional, organism-based
[23] = biological target: Voltage-gated inwardly rectifying potassium channel KCNH2 (Homo sapiens, UniProt Q12809); test: Displacement of [3H]astemizole from human ERG upto 100 uM
Cytochrome P450 2C19 = Cytochrome P450 2C19 (Homo sapiens, UniProt P33261); test: Inhibition of CYP2C19 (unknown origin); assay type: ADME
[24] = AUC in dog at 5 mg/kg, po; assay type: ADME, organism-based, Canis lupus familiaris; conditions: in vivo
Cytochrome P450 3A4 = Cytochrome P450 3A4 (Homo sapiens, UniProt P08684); test: Inhibition of CYP3A4 (unknown origin); assay type: ADME
Rattus norvegicus [25] = test: Analgesic activity in […]-induced rat joint pain model assessed as inhibition of differential weight bearing at 5 mg/kg, po measured 30 mins post dose; assay type: functional, organism-based
[26] = Cmax in dog at 5 mg/kg, po; assay type: ADME, organism-based, Canis lupus familiaris; design: dose 5 mg/kg, route oral; conditions: in vivo
[27] = biological target: Beta-2 adrenergic receptor (Homo sapiens) (UniProt P07550); test: Inhibition of human beta-2 adrenergic receptor at 10 uM
[28] = biological target: Acetylcholinesterase (Homo sapiens) (UniProt P22303); test: Inhibition of human acetylcholinesterase at 10 uM
Rattus norvegicus [29] = test: Analgesic activity in […]-induced po dosed rat joint pain model assessed as inhibition of differential weight bearing measured 30 mins post dose; assay type: functional, organism-based
[30] = biological target: Prostaglandin E2 receptor EP1 subtype (Homo sapiens, UniProt P34995); test: Binding affinity to human EP1 receptor
[31] = Oral bioavailability in dog at 5 mg/kg; assay type: ADME, organism-based, Canis lupus familiaris; conditions: in vivo
Rattus norvegicus [32] = species: Rattus norvegicus; test: Inhibition of rat chloride channel at 10 uM
[33] = biological target: L-type calcium channel, verapamil binding site (Homo sapiens, UniProt O60840+Q01668+Q13698+Q13936); test: Inhibition of L-type calcium channel verapamil binding site (unknown origin) at 10 uM; assay type: protein assay
[34] = Volume of distribution at steady state in rat at 1 mg/kg, iv and 5 mg/kg, po; assay type: ADME, organism-based; conditions: in vivo, read-out: Vdss
[35] = biological target: Prostaglandin E2 receptor EP2 subtype (Homo sapiens, UniProt P43116); test: Binding affinity to human EP2 receptor
[36] = biological target: L-type calcium channel, dihydropyridine binding site (Homo sapiens, UniProt O60840+Q01668+Q13698+Q13936); test: Inhibition of L-type calcium channel dihydropyridine binding site (unknown origin) at 10 uM; assay type: protein assay
[37] = Volume of distribution at steady state in dog at 1 mg/kg, iv and 5 mg/kg, po; assay type: ADME, organism-based, Canis lupus familiaris; conditions: in vivo, read-out: Vdss
Cytochrome P450 2D6 = Cytochrome P450 2D6 (Homo sapiens, UniProt P10635); test: Inhibition of CYP2D6 (unknown origin); assay type: ADME
[38] = Half life in dog at 5 mg/kg, po; assay type: ADME, organism-based, Canis lupus familiaris; conditions: in vivo
[39] = biological target: L-type calcium channel, diltiazem binding site (Homo sapiens, UniProt O60840+Q01668+Q13698+Q13936); test: Inhibition of L-type calcium channel diltiazem binding site (unknown origin) at 10 uM; assay type: protein assay
[40] = Cmax in rat at 5 mg/kg, po; assay type: ADME, organism-based; design: dose 5 mg/kg, route oral; conditions: in vivo
[41] = Oral bioavailability in rat; assay type: ADME, organism-based; conditions: in vivo

T1 sequence (P35408 whole entry): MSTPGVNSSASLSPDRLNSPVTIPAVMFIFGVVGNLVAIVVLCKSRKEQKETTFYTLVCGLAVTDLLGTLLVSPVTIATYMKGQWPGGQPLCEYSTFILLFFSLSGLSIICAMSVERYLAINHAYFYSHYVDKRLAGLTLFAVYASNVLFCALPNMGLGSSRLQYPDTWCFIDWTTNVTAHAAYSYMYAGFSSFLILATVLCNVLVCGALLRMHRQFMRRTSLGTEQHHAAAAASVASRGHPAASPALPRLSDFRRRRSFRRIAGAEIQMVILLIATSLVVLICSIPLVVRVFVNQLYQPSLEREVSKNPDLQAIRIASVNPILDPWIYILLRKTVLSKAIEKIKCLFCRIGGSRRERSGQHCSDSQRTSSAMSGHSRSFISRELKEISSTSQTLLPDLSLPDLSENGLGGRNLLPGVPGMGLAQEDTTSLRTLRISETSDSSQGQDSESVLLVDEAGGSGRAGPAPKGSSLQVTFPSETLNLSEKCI
Sequence of Prostaglandin E2 receptor EP3 subtype (P43115 whole entry): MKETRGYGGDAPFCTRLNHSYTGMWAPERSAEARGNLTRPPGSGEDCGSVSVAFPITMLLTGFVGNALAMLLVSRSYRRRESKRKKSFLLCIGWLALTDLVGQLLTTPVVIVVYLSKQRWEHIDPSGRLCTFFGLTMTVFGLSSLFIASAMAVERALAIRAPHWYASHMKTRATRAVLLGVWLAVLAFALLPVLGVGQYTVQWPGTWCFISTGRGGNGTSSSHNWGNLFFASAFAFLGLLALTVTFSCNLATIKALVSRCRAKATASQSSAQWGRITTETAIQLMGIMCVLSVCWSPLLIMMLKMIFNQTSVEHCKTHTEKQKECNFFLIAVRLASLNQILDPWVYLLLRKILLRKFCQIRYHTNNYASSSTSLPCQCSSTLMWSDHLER
Sequence of Prostaglandin E2 receptor EP2 subtype (P43116 whole entry): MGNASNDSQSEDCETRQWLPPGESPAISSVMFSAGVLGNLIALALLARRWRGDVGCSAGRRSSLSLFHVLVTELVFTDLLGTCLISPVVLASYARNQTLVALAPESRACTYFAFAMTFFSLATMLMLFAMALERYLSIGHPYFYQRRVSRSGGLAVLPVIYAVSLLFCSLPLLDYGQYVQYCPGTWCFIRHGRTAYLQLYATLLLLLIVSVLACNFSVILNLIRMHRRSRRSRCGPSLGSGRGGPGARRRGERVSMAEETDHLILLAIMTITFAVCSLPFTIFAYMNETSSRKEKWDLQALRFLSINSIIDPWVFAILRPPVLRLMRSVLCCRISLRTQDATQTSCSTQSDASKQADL
Sequence of Prostaglandin E2 receptor EP1 subtype (P34995 whole entry): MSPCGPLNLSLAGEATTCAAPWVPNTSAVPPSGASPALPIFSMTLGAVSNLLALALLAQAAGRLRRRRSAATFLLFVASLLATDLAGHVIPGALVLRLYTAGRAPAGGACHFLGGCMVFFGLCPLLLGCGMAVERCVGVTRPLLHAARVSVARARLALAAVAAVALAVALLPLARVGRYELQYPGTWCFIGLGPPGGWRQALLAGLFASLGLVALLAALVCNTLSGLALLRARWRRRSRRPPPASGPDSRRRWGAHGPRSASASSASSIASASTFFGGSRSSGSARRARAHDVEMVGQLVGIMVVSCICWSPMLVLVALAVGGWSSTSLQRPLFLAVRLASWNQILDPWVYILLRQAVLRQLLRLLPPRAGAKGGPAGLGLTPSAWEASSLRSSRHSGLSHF
Sequence of D(1A) dopamine receptor (Homo sapiens) (P21728 whole entry): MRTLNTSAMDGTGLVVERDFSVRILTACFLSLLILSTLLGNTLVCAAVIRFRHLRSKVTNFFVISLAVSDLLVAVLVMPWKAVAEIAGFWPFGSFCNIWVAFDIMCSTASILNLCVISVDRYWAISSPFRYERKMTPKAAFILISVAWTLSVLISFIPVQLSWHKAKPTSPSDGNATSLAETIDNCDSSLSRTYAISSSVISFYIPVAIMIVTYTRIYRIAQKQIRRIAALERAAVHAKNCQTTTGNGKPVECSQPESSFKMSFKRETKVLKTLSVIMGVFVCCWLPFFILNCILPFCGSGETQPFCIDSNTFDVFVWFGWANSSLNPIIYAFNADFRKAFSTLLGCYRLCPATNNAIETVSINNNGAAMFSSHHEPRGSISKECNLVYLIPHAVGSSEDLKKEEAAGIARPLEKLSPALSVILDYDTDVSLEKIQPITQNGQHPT
Sequence of Cytochrome P450 2C9 (P11712 whole entry): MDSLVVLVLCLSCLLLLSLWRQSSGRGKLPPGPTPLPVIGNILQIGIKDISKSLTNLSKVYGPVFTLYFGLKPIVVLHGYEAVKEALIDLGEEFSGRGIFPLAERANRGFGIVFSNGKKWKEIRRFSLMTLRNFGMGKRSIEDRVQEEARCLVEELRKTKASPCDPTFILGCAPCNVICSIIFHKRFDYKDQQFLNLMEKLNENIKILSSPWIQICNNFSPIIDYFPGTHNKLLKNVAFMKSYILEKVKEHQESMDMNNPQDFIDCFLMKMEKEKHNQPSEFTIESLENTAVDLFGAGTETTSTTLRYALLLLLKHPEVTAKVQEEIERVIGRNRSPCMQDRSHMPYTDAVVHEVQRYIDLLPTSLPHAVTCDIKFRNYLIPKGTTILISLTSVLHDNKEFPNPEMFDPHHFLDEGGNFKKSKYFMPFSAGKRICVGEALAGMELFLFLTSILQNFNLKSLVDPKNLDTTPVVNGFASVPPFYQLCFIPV
Sequence of Muscarinic acetylcholine receptor M2 (Homo sapiens) (P08172 whole entry): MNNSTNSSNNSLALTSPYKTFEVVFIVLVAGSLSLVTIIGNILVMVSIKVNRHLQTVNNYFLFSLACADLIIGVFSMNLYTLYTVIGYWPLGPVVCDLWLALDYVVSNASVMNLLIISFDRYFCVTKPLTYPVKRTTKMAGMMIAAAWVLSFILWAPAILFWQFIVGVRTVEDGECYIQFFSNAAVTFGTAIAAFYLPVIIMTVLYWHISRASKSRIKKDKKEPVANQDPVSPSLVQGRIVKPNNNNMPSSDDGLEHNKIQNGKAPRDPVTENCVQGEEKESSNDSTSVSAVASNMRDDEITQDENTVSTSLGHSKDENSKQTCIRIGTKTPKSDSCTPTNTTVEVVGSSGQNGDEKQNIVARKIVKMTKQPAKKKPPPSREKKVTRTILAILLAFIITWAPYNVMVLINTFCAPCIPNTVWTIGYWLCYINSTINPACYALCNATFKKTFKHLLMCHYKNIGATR
Sequence of Beta-1 adrenergic receptor (Homo sapiens) (P08588 whole entry, looked up): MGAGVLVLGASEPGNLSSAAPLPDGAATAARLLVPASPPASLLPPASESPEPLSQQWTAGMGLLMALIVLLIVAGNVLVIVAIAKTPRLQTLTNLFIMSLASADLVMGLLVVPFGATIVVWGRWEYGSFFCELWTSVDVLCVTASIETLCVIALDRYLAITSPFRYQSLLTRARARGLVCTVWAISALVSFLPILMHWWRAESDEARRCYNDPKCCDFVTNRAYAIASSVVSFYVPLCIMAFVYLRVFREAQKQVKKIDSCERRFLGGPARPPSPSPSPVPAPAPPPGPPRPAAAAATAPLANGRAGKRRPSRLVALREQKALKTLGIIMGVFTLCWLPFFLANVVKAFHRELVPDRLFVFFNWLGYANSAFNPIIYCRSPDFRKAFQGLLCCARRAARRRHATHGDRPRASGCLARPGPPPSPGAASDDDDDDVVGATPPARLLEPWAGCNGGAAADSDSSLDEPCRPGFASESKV
Sequence of Cytochrome P450 3A4 (P08684 whole entry): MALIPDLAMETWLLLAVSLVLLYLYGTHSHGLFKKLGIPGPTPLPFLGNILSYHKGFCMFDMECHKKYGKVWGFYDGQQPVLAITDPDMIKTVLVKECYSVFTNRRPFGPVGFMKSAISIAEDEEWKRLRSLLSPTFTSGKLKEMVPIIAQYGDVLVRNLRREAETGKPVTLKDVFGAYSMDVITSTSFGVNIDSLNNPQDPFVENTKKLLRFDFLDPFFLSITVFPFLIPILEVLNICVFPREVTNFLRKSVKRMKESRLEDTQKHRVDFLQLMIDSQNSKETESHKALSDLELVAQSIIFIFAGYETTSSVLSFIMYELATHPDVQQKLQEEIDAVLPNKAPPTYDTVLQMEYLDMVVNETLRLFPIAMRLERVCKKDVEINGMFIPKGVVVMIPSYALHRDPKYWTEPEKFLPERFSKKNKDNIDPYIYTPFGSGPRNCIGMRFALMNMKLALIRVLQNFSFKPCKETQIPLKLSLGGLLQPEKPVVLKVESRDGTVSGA
Sequence of Beta-2 adrenergic receptor (Homo sapiens) (P07550 whole entry, looked up): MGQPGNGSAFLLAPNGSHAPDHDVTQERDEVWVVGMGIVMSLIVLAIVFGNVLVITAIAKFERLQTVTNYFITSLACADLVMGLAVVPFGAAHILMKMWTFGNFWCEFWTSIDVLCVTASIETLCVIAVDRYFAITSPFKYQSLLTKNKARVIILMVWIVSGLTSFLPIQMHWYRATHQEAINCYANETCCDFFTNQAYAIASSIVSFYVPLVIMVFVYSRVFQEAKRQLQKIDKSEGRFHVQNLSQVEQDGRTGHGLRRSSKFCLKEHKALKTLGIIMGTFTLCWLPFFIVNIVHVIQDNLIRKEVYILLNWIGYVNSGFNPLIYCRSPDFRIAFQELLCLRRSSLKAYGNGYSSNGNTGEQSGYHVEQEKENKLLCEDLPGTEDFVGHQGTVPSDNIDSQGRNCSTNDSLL
Sequence of Histamine H1 receptor (Homo sapiens) (P35367 whole entry): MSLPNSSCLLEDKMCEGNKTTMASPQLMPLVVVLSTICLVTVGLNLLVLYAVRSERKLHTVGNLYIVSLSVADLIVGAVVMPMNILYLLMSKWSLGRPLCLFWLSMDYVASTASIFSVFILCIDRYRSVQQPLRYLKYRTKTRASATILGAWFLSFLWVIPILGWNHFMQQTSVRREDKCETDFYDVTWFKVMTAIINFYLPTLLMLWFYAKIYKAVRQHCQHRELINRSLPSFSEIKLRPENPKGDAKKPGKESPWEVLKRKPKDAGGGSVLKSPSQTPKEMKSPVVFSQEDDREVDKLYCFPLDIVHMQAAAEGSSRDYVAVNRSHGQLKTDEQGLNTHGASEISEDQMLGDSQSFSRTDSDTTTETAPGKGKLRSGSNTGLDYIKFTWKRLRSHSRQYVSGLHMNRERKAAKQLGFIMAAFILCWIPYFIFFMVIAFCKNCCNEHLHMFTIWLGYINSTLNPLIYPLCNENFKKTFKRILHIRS

In the case of `Cc1ccc(-c2cccc(CO)c2)cc1C(=O)Nc1c(C)ccc(C(=O)O)c1C`, the bioavailability [1] is reported as 7%, the solubility at 20 h [2] is reported as 783 µg/mL (≈ 2010 µM) and the IC50 [3] is reported as 59.5 nM. The clearance [4] was 15 mL/min/kg and the AUC [5] was 375 ng·h/mL.

`Cc1ccc(C(=O)O)c(C)c1NC(=O)c1cc(-c2cccc(CO)c2)ccc1F` gave an F (Rattus norvegicus [6]) of 11%, a solubility at 20 h [2] of 709 µg/mL (≈ 1800 µM) and an IC50 [7] of 4.49 nM. The IC50 [3] was 72.4 nM and the AUC (Rattus norvegicus [8]) was 994 ng·h/mL.

In the case of `Cc1ccc(-c2cccc(CO)c2)nc1C(=O)Nc1c(C)ccc(C(=O)O)c1C`, the inhibition [9] is reported as 5%, the inhibition [10] is reported as -3% and the bioavailability [1] is reported as 22%. It also gave an inhibition [11] of -7%, an IC50 (Cytochrome P450 2C8) of over 10000 nM and an IC50 (Cytochrome P450 1A2) of over 10000 nM. It also gave an inhibition [12] of 11%, an inhibition [13] of 0% and an inhibition [14] of -5%. For the same compound, the IC50 (Cytochrome P450 2C9) was over 10000 nM, the half-life [15] was 2.1 h and the clearance [16] was 3.7 mL/min/kg. The IC50 [17] was over 25000 nM, the Ki [17] was over 14000 nM and the IC50 (Cytochrome P450 2B6) was over 10000 nM. It also gave an inhibition [18] of 1%, an inhibition [19] of -6% and an inhibition [20] of -1%. The inhibition [21] was -3%, the inhibition (Rattus norvegicus [22]) was “Active” and the “inhibition (INH)” value [23] was “Not Active”. The IC50 (Cytochrome P450 2C19) was over 10000 nM, the AUC [24] was 10900 ng·h/mL and the IC50 (Cytochrome P450 3A4) was over 10000 nM. The inhibition (Rattus norvegicus [25]) was “Active”, the solubility at 20 h [2] was 242 µg/mL (≈ 620 µM) and the Cmax [26] was 3820 ng/mL. It also gave an IC50 [3] of 38.7 nM, an inhibition [27] of 9% and an inhibition [28] of -2%. The inhibition (Rattus norvegicus [29]) was “Dose-dependent effect”, the IC50 [30] was over 25000 nM and the Ki [30] was over 17500 nM. For the same compound, the bioavailability [31] was 48%, the inhibition (Rattus norvegicus [32]) was -6% and the inhibition at 10 µM [33] was -10%. For the same compound, the Vd [34] was 0.16 L/kg, the IC50 [35] was over 25000 nM and the Ki [35] was over 18900 nM. It also gave a clearance [4] of 2.2 mL/min/kg, an inhibition at 10 µM [36] of -46% and an AUC [5] of 8520 ng·h/mL. It also gave a Vd [37] of 0.97 L/kg, an IC50 (Cytochrome P450 2D6) of over 10000 nM and a half-life [38] of 1.1 h. It also gave an inhibition at 10 µM [39] of -7% and a Cmax [40] of 1640 ng/mL.

`Cc1ccc(-c2cccc(CO)c2)nc1C(=O)Nc1c(C)cc(C(=O)O)cc1C` gave a bioavailability [1] of 36%, a solubility at 20 h [2] of 14 µg/mL (≈ 35.9 µM) and an IC50 [7] of 0.67 nM. The IC50 [3] was 56.3 nM, the clearance [4] was 7 mL/min/kg and the AUC [5] was 4330 ng·h/mL.

`Cc1ccc(C(=O)O)c(C)c1NC(=O)c1cc(-c2cccc(Cl)c2)cc2ccccc12` gave a bioavailability [41] of 100%.

With `Cc1ccc(C(=O)O)c(C)c1NC(=O)c1nc(-c2cccc(CO)c2)ccc1C(F)(F)F` the bioavailability [1] was 13%, the solubility at 20 h [2] was 29 µg/mL (≈ 65.3 µM) and the IC50 [7] was 1.94 nM. For the same compound, the IC50 [3] was 59 nM, the clearance [4] was 7 mL/min/kg and the AUC [5] was 1540 ng·h/mL.
